Laboratory results as given in patent US20250236608A1, “EGFR INHIBITORS” (Blueprint Medicines Corporation, priority 2022, published 2025).
pIC50: −log10 of the molar value. Where a name gives a salt, the structure may show the parent alone.

How the values were obtained:
EGFR (d746-750) = EGFR (d746-750) (Homo sapiens (Human), UniProt P00533, DEL746-750); assay: Biochemical EGFR inhibition assay, EGFR (d746-750); conditions: Caliper mobility shift; 1.0 mM ATP or ATP Km; read-out: Enz EGFR_Exon19-del746-750 IC50
[1] = molecular target: pEGFR (Tyr1068) in PC-9 cells (Ex19Del) (Homo sapiens (Human), UniProt P00533, DEL746-750); assay: PC-9 pEGFR AlphaLISA assay; type: cell-based; conditions: 4 hours incubation, p-EGFR (Tyr1068) AlphaLISA, read-out: Ext pEGFR_PC-9 Ex19Del IC50
Outline: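 Phospho-EGFR (Tyr1068) was quantified by AlphaLISA SureFire Ultra in lysates of PC-9 cells exposed for 4 h to compound (4-fold, 10-point dilutions).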

EGFR L858R = EGFR L858R (Homo sapiens (Human), UniProt P00533, L858R); assay: Biochemical EGFR inhibition assay, EGFR L858R; conditions: Caliper mobility shift; 1.0 mM ATP or ATP Km; read-out: Enz EGFR_L858R IC50
EGFR L858R, sequence (P00533 25-1210 L858R): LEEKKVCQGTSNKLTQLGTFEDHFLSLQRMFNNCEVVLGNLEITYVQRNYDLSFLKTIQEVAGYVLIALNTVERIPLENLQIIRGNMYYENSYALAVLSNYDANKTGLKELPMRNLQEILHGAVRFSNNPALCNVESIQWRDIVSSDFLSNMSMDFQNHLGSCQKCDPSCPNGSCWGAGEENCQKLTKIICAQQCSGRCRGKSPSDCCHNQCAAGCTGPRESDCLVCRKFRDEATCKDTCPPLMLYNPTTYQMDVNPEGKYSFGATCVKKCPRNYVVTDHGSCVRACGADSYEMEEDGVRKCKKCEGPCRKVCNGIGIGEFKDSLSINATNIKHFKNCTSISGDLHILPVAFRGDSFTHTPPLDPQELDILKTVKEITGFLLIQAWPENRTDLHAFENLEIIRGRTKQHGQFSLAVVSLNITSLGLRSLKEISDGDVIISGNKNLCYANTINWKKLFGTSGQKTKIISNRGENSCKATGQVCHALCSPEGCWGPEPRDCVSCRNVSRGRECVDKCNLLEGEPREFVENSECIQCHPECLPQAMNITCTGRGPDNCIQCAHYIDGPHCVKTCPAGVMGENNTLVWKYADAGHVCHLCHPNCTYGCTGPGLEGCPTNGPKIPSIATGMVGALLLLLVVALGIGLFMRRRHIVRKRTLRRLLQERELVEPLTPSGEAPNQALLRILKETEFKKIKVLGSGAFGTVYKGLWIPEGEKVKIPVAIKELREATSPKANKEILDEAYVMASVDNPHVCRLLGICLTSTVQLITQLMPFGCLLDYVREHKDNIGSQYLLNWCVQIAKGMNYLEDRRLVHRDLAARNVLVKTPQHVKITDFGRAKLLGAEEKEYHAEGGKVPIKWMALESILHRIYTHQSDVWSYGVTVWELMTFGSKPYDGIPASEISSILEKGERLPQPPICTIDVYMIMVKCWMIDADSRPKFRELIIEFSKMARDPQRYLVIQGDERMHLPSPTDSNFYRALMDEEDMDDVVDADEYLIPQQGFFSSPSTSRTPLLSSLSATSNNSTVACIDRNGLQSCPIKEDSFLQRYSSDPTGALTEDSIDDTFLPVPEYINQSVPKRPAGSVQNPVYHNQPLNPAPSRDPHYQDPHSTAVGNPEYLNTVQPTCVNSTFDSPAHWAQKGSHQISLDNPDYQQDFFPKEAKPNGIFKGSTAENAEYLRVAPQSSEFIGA

EGFR (d746-750), sequence (P00533 other isoform, or with tags, fused parts or gaps del 1-694/del 746-750 limits assumed): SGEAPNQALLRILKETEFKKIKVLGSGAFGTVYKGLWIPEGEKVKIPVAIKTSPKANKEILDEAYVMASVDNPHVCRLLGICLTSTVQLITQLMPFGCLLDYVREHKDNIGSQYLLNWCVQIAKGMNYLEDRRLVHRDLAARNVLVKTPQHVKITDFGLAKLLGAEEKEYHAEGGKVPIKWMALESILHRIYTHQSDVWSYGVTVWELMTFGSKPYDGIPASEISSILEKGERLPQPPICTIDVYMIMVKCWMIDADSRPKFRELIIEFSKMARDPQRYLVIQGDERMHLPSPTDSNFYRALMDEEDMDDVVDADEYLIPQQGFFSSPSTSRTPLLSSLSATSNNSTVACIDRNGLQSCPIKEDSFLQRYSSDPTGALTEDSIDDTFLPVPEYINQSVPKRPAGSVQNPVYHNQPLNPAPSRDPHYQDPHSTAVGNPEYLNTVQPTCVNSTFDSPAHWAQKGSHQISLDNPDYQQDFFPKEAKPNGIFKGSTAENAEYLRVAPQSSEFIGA
pEGFR (Tyr1068) in PC-9 cells (Ex19Del), sequence (P00533 other isoform, or with tags, fused parts or gaps del 746-750): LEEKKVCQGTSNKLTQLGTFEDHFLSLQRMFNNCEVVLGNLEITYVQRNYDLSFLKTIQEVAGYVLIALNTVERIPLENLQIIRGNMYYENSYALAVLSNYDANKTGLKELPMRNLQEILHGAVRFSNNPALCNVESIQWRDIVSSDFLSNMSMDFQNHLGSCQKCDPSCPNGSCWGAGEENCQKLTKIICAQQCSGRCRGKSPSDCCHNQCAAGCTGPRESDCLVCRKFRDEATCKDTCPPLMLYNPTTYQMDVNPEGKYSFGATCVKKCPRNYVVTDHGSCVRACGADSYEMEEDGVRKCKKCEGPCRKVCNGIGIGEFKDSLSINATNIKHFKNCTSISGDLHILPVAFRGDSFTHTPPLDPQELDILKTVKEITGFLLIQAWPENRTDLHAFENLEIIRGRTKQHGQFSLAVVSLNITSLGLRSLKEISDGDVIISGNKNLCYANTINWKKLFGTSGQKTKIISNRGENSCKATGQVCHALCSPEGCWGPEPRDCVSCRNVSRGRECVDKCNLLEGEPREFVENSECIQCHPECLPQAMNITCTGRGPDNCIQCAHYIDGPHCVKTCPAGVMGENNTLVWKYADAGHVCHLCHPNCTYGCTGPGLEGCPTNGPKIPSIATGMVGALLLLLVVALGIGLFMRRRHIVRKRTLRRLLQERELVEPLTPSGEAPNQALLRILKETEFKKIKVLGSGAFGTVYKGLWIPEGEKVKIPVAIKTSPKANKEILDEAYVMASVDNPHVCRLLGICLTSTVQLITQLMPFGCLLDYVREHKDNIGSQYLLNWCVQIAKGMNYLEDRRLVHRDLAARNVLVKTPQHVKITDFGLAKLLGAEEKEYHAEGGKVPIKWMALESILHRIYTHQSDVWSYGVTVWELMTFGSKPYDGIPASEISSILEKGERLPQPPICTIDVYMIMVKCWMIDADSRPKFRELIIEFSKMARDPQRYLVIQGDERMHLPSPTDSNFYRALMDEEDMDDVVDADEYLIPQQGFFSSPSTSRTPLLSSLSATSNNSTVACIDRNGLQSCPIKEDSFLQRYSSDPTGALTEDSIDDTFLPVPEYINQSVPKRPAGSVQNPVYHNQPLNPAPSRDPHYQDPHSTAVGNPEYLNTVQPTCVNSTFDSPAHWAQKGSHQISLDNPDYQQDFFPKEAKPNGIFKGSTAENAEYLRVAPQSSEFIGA

| pIC50 (EGFR (d746-750)) | pIC50 [1] | pIC50 (EGFR L858R) | Compound |
| --- | --- | --- | --- |
| 8.68 | 8.28 | 8.34 | COc1cc2ncnc(-c3cn(C)nc3-c3ccccc3)c2c(F)c1NC(=O)C1CCC1 [Example 295, N-(5-fluoro-7-methoxy-4-(1-methyl-3-phenyl-1H-pyrazol-4-yl)quinazolin-6-yl)cyclobutanecarboxamide] |
| 8.77 | 8.80 | 8.68 | CCC(=O)Nc1cc2c(-c3cn(C)nc3-c3ccccc3)ncnc2cc1OC [Example 322, N-(7-methoxy-4-(1-methyl-3-phenyl-1H-pyrazol-4-yl)quinazolin-6-yl)propionamide] |
| 8.49 | 8.06 | 8.16 | COc1cc2ncnc(-c3cn(C)nc3-c3ccccc3)c2nc1NC(=O)c1ccc(F)cc1 [Example 312, 4-fluoro-N-(7-methoxy-4-(1-methyl-3-phenyl-1H-pyrazol-4-yl)pyrido[3,2-d]pyrimidin-6-yl)benzamide] |
| 8.05 | 7.60 | 8.11 | Cc1nnc([C@H](C)Oc2nc3c(-c4cn(C)nc4-c4ccccc4)ncnc3cc2OC2CC2)o1 (single isomer, unassigned) [Example 477, 2-[(1R)-1-{[7-cyclopropoxy-4-(1-methyl-3-phenyl-1H-pyrazol-4-yl)pyrido[3,2-d]pyrimidin-6-yl]oxy}ethyl]-5-methyl-1,3,4-oxadiazole or 2-[(1S)-1-{[7-cyclopropoxy-4-(1-methyl-3-phenyl-1H-pyrazol-4-yl)pyrido[3,2-d]pyrimidin-6-yl]oxy}ethyl]-5-methyl-1,3,4-oxadiazole] |
| 9.10 | 8.77 | 8.70 | CCn1cc(-c2ncnc3cc(OC)c(NC(=O)C45CC(N(C)C)(C4)C5)nc23)c(-c2ccc(F)cc2)n1 [Example 405, 3-(dimethylamino)-N-(4-(1-ethyl-3-(4-fluorophenyl)-1H-pyrazol-4-yl)-7-methoxypyrido[3,2-d]pyrimidin-6-yl)bicyclo[1.1.1]pentane-1-carboxamide] |
| 9.00 | 9.10 | 8.77 | COc1cc2ncnc(-c3cn(C)nc3-c3ccccc3)c2cc1NC(=O)[C@@H]1CCN(C)C[C@H]1F (racemic) [Example 339, trans-rac-(3R,4R)-3-fluoro-N-(7-methoxy-4-(1-methyl-3-phenyl-1H-pyrazol-4-yl)quinazolin-6-yl)-1-methylpiperidine-4-carboxamide trifluoroacetate] |
| 8.51 | 8.01 | 7.59 | CN(C)CCOc1cc2ncnc(-c3cn(C)nc3-c3ccccc3)c2nc1NC(=O)C12COCC1C2 (stereo not drawn) [Example 435, N-(7-(2-(dimethylamino)ethoxy)-4-(1-methyl-3-phenyl-1H-pyrazol-4-yl)pyrido[3,2-d]pyrimidin-6-yl)-3-oxabicyclo[3.1.0]hexane-1-carboxamide] |
| 8.60 | 8.60 | 8.21 | COc1cc2ncnc(-c3cn(C)nc3-c3ccccc3)c2cc1OC(=O)N1CCOCC12CC2 [Example 65, 7-methoxy-4-(1-methyl-3-phenyl-1H-pyrazol-4-yl)quinazolin-6-yl 7-oxa-4-azaspiro[2.5]octane-4-carboxylate] |
| 9.15 | 8.82 | 8.66 | [2H]C([2H])([2H])Oc1cc2ncnc(-c3cn(C([2H])([2H])[2H])nc3-c3ccccc3)c2nc1NC(=O)C1(C(F)(F)F)CC1 [Example 486, N-(7-(methoxy-d3)-4-(1-(methyl-d3)-3-phenyl-1H-pyrazol-4-yl)pyrido[3,2-d]pyrimidin-6-yl)-1-(trifluoromethyl)cyclopropane-1-carboxamide] |
| 9.00 | 9.10 | 8.82 | COc1cc2ncnc(-c3cn(CC(F)F)nc3-c3ccccc3)c2cc1N1CCOCC1 [Example 168, 4-(4-(1-(2,2-difluoroethyl)-3-phenyl-1H-pyrazol-4-yl)-7-methoxyquinazolin-6-yl)morpholine] |
| 8.92 | 9.10 | 8.59 | COc1cc2ncnc(-c3cn(C)nc3-c3ccccc3)c2cc1NC(=O)c1sc(C2CC2)nc1C [Example 354, 2-cyclopropyl-N-(7-methoxy-4-(1-methyl-3-phenyl-1H-pyrazol-4-yl)quinazolin-6-yl)-4-methylthiazole-5-carboxamide] |
| 8.05 | 8.29 | 7.85 | COc1cc2ncnc(-c3cn(C)nc3-c3ccccc3)c2cc1NC(=O)c1cc2n(n1)CCCC2 [Example 225, N-(7-methoxy-4-(1-methyl-3-phenyl-1H-pyrazol-4-yl)quinazolin-6-yl)-4,5,6,7-tetrahydropyrazolo[1,5-a]pyridine-2-carboxamide] |
| 9.05 | 8.60 | 8.62 | CCOc1cc2ncnc(-c3cn(C)nc3-c3ccc(F)cc3)c2nc1NC(=O)[C@@]12C[C@@H]1CN(C)C2 (single isomer, unassigned) [Example 375, (1S,5S)—N-(7-ethoxy-4-(3-(4-fluorophenyl)-1-methyl-1H-pyrazol-4-yl)pyrido[3,2-d]pyrimidin-6-yl)-3-methyl-3-azabicyclo[3.1.0]hexane-1-carboxamide or (1R,5R)—N-(7-ethoxy-4-(3-(4-fluorophenyl)-1-methyl-1H-pyrazol-4-yl)pyrido[3,2-d]pyrimidin-6-yl)-3-methyl-3-azabicyclo[3.1.0]hexane-1-carboxamide] |
| 8.62 | 8.60 | 8.32 | COc1cc2ncnc(-c3cn(C)nc3-c3ccccc3)c2cc1OC(=O)N1[C@H](C)COC[C@@H]1C [Example 63, 7-methoxy-4-(1-methyl-3-phenyl-1H-pyrazol-4-yl)quinazolin-6-yl (3S,5R)-3,5-dimethylmorpholine-4-carboxylate] |
| 8.85 | 8.42 | 8.70 | COc1cc2ncnc(-c3cn(C)nc3-c3ccccc3)c2cc1NC(=O)c1c(C)cccc1F [Example 201, 2-fluoro-N-(7-methoxy-4-(1-methyl-3-phenyl-1H-pyrazol-4-yl)quinazolin-6-yl)-6-methylbenzamide] |
| 9.10 | 8.38 | 8.85 | COc1cc2ncnc(-c3sc(C)nc3-c3ccccc3)c2nc1NC(=O)C1CC1 [Example 437, N-(7-methoxy-4-(2-methyl-4-phenylthiazol-5-yl)pyrido[3,2-d]pyrimidin-6-yl)cyclopropanecarboxamide] |
| 8.70 | 8.34 | 8.52 | COc1cc2ncnc(-c3cn(C)nc3-c3ccccc3)c2cc1O[C@@H]1CN(C)C[C@@H]1F [Example 5, 6-(((3R,4S)-4-fluoro-1-methylpyrrolidin-3-yl)oxy)-7-methoxy-4-(1-methyl-3-phenyl-1H-pyrazol-4-yl)quinazoline] |
| 8.77 | 8.19 | 8.54 | COc1cc2ncnc(-c3cn(C)nc3-c3ccccc3)c2cc1N1CCC[C@H](O)C1 [Example 164, (S)-1-(7-methoxy-4-(1-methyl-3-phenyl-1H-pyrazol-4-yl)quinazolin-6-yl) piperidin-3-ol] |

| Compound | pIC50 (EGFR (d746-750)) | pIC50 [1] | pIC50 (EGFR L858R) |
| --- | --- | --- | --- |
| CCN1CCN(C(=O)Oc2cc3c(-c4cn(C)nc4-c4ccccc4)ncnc3cc2OC)[C@@H](C)C1 [Example 75, 7-methoxy-4-(1-methyl-3-phenyl-1H-pyrazol-4-yl)quinazolin-6-yl (S)-4-ethyl-2-methylpiperazine-1-carboxylate] | 8.66 | 8.44 | 8.44 |
| COc1cc2ncnc(-c3cn(C)nc3-c3ccccc3)c2cc1OC(=O)N1CCN(C)[C@H](C)[C@@H]1C [Example 98, 7-methoxy-4-(1-methyl-3-phenyl-1H-pyrazol-4-yl)quinazolin-6-yl (2S,3R)-2,3,4-trimethylpiperazine-1-carboxylate] | 8.47 | 8.03 | 8.17 |
| COc1cc2ncnc(-c3cn(C)nc3-c3ccccc3)c2cc1OC(=O)N1CCNCC1(C)C [Example 86, 7-methoxy-4-(1-methyl-3-phenyl-1H-pyrazol-4-yl)quinazolin-6-yl 2,2-dimethylpiperazine-1-carboxylate] | 8.60 | 8.24 | 8.30 |
| COc1cc2ncnc(-c3cn(C)nc3-c3ccccc3)c2cc1OC(=O)N1[C@@H](C)CNC[C@@H]1C [Example 88, 7-methoxy-4-(1-methyl-3-phenyl-1H-pyrazol-4-yl)quinazolin-6-yl (2S,6S)-2,6-dimethylpiperazine-1-carboxylate] | 8.72 | 8.12 | 8.49 |
| COc1cc2ncnc(-c3c(-c4ccccc4)nn(C)c3C)c2cc1OC(=O)N1CCN(C)C[C@@H]1C [Example 482, 4-(1,5-dimethyl-3-phenyl-1H-pyrazol-4-yl)-7-methoxyquinazolin-6-yl(S)-2,4-dimethylpiperazine-1-carboxylate] | 7.01 | 6.49 | 6.68 |
| COc1cc2ncnc(-c3cn(CC(F)F)nc3-c3ccccc3)c2cc1OC(=O)N1CCN(C)C[C@@H]1C [Example 70, 4-(1-(2,2-difluoroethyl)-3-phenyl-1H-pyrazol-4-yl)-7-methoxyquinazolin-6-yl (S)-2,4-dimethylpiperazine-1-carboxylate] | 8.77 | 8.80 | 8.57 |
| COc1cc2ncnc(-c3cn(C)nc3-c3ccccc3)c2cc1OC(=O)N1CCN(C)CC1C (stereo not drawn) [Example 57, 7-methoxy-4-(1-methyl-3-phenyl-1H-pyrazol-4-yl)quinazolin-6-yl 2,4-dimethylpiperazine-1-carboxylate] | 8.77 | 8.66 | 8.64 |
